Test results: patent US20020115728A1, “Compositions and methods for treating cardiovascular disorders” (priority 2000, published 2002)
Values belong to the compound of their own block, whether it stands above or below them.

How the values were obtained:
[1] = tested on: α-tocopheroxyl radical; assay: Tocopheroxyl radical attenuating ability (TRAA); assay type: biochemical; settings: kobs with (+) or without (−) test compound
[2] = tested on: tocopherol-mediated peroxidation (TMP); assay: Anti-TMP index; assay type: biochemical
[3] = tested on: intimal thickening in rabbit aorta after arterial balloon injury; assay: Histological evaluation of aortic lesion formation after arterial balloon injury; assay type: in vivo, New Zealand White rabbits; settings: rabbits, 0.02% PDA474, six weeks after ABI
Procedure: (§1) Twelve rabbits were initially fed standard rabbit chow ad libitum for two weeks, before commencement of the nine weeks intervention study. Six rabbits were fed 100 g per day of standard rabbit chow without (control) or with 0.02% PDA474. At the end of week three, the abdominal aorta and right iliac artery were injured by inserting a 3F Fogarty catheter into the right femoral artery and advancing it by about 25 cm to a position just above the diaphragm. The balloon was then inflated with 0.2 mL of saline, and the catheter pulled back three times. Following injury rabbits were placed back onto their respective diet for another six weeks. During the nine weeks, blood was taken from the marginal ear vein of non-fasted rabbits each week for measuring plasma PDA474 and its metabolites. At the end of week nine, the aorta, iliofemoral arteries and a portion of various tissues (liver, kidney, heart, muscle, spleen and abdominal fat) were harvested.
The lower abdominal aorta and iliofemeral arteries were pre-perfusion-fixed with 4% buffered formalin at a constant physiological pressure (˜100 mmHg) before removal and placement in 4% buffered formalin for further fixation for 12 h at room temperature. Two parts of the abdominal aorta were taken for lesion assessment. One part (referred to as A1) was located just above 3rd lumber artery close to the lumber branches, and the other part (referred to as A3) represented the central part between 3rd and 4th lumber arteries, where there are few branches. A1 and A3 specimens were embedded in paraffin and two sections (200 μm apart) were taken from each specimen and stained with Verhoeff hematoxylin.
The intima, media and intima/media ratio (IMR) were calculated by tracing the intimal and medial areas and determining their respective total pixel numbers. High IMR indicate large lesions. In addition, the perimeter of the external elastic lamina and the lumen were quantified using Scion Image Software to assess the extent of vessel remodeling.

[4] = tested on: cGMP production by aortic rings; assay: cGMP in homogenates of aortic rings (radioimmunoassay); assay type: in vivo, New Zealand White rabbits; settings: aortic rings of PDA474-treated rabbits, 1 μM ACh
Procedure: cGMP in the homogenates of aortic ring was determined by a specific radioimmunoassay. […] SNP (1 μM) was used as a positive and buffer vehicle as a negative control. The cGMP content was then determined as described in the commercial assay kit (Cayman Chemical), and results expressed per tissue weight or protein.

[5] = PDA474 and metabolite levels in plasma, aorta and major tissues; assay type: in vivo, New Zealand White rabbits
Procedure: as §1

[6] = tested on: abdominal aortic rings of balloon-injured rabbits; assay: Aortic ring study (response to NE, ACh, SNP); assay type: in vivo, New Zealand White rabbits
From the text: Following the intervention, the abdominal aorta was removed carefully, cleared of adhering fat and connective tissue, and then cut into 2 mm-wide transverse rings just under second lumbar artery (about 9 cm distal to the common iliac artery and about 5 cm below the celiac artery). This portion of the aorta contains few branches. […] Before the start of the experiments, aortic rings were allowed to equilibrate for one hour under a resting tension of 2.5 g, followed by three washes and re-equilibration of the rings between addition of drugs inducing vaso-response. At the end of each experiment, the aortic ring was weight. The vascular function was assessed in three parts:
2) The response to the endothelium-dependent vasodilator, acetylcholine (ACh). Rings were pre-constricted with PE corresponding to a dose that gave half-maximum contraction (EC50) as calculated from the dose-response curve to NE. ACh (10^−9-10^−5 M) was added after reaching a constant contriction.
3) The response to the endothelium-independent vasodilator, sodium nitroprusside (SNP) (10^−9-10^−5 M) was determined to assess vascular smooth muscle cell function.

[7] = tested on: New Zealand White rabbits with arterial balloon injury; assay: Liver function (serum AST, ALT, GGT); assay type: in vivo; settings: for Serum ALT / Serum AST / Serum GGT: 0.02% PDA474
Procedure: as §1

[8] = tested on: New Zealand White rabbits with arterial balloon injury; assay: Serum and plasma lipid profile and antioxidants; assay type: in vivo
Procedure: as §1

[9] = 0.02% PDA474, Week 0 (baseline)

Compound: Cc1cc(C(C)(C)C)c(O)c(C(C)(C)C)c1 [BHT]
TRAA (decay of tocopheroxyl radical; kobs(+)/kobs(−)) [1]: Immediate decay
Anti-TMP index [2]: 8-10

Fat PDA474 level ([5]; 0.02% PDA474, 9 weeks, abdominal fat): 1.99 ± 0.40 nmol/mg P
Aorta PDA474 level ([5]; 0.02% PDA474, 9 weeks, aorta): 0.59 ± 0.12 nmol/mg P
Heart PDA474 level ([5]; 0.02% PDA474, 9 weeks, heart): 0.65 ± 0.43 nmol/mg P
Kidney PDA474 level ([5]; 0.02% PDA474, 9 weeks, kidney): 0.26 ± 0.06 nmol/mg P
Liver PDA474 level ([5]; 0.02% PDA474, 9 weeks, liver): 7.30 ± 2.82 nmol/mg P
Muscle PDA474 level ([5]; 0.02% PDA474, 9 weeks, muscle): 0.17 ± 0.06 nmol/mg P
Spleen PDA474 level ([5]; 0.02% PDA474, 9 weeks, spleen): 0.30 ± 0.13 nmol/mg P
concentration at 9 weeks ([5]; New Zealand White, rabbit, oral, 0.02 % in chow, rabbits, 0.02% PDA474 in chow, 9 weeks, plasma, read-out: Plasma PDA474 level): 370 ± 40 nM
time until plasma concentrations of PDA474 reached steady state ([5]; rabbits, chow with 0.02% PDA474): 1˜2 weeks
amount of the administered PDA474 reaching the circulation ([5]; rabbits, chow with 0.02% PDA474, estimated): < 1%
Compound: CC(C)(C)c1cc(SSc2cc(C(C)(C)C)c(O)c(C(C)(C)C)c2)cc(C(C)(C)C)c1O [PDA474]
intima-to-media ratio (IMR), Section A1 of the abdominal aorta, vs control [3]: significantly lower
media areas of abdominal aorta vs control [3]: significantly increased
vascular remodeling (lumen area, EEL perimeter) [3]: did not affect
tissue cGMP concentrations in response to ACh vs control [4]: significantly increased
muscle tone (g/mg tissue) vs control aortic rings ([6]; NE-induced constriction, PDA474-treated rabbits): nearly twice as high
SNP-induced relaxation vs control ([6]; rings from PDA474-treated rabbits): comparable
ACh-induced relaxation of aortic rings ([6]; rings from PDA474-treated rabbits, pre-constricted with NE at EC50, maximal response at ˜10^−5M ACh): 61 % relaxation
NE-induced constriction of abdominal aortic rings vs control ([6]; rings from balloon-injured rabbits fed 0.02% PDA474): significantly increased
Serum ALT ([7]; Week 0 (baseline)): 51.17 ± 3.08 U/L
Serum AST ([7]; Week 0 (baseline)): 28.17 ± 2.65 U/L
Serum GGT ([7]; Week 0 (baseline)): 11.50 ± 1.06 U/L
Serum ALT ([7]; Week 3 (ABI)): 76.00 ± 8.13 U/L
Serum AST ([7]; Week 3 (ABI)): 63.33 ± 23.47 U/L
Serum GGT ([7]; Week 3 (ABI)): 12.33 ± 2.29 U/L
Serum ALT ([7]; Week 6): 72.83 ± 5.19 U/L
Serum AST ([7]; Week 6): 33.83 ± 8.79 U/L
Serum GGT ([7]; Week 6): 13.67 ± 0.76 U/L
Serum ALT ([7]; Week 9 (cull)): 100.67 ± 10.43 U/L
Serum AST ([7]; Week 9 (cull)): 69.67 ± 14.34 U/L
Serum GGT ([7]; Week 9 (cull)): 12.33 ± 0.99 U/L
effect on liver function ([7]; rabbits, 0.02% PDA474, 9 weeks): did not affect liver function
Plasma Ascorbate [8, 9]: 34.56 ± 4.36 µmol/L
Plasma Ch18:2 [8, 9]: 0.19 ± 0.02 mmol/L
Plasma Ch20:2 [8, 9]: 0.01 ± 0.00 mmol/L
Plasma Free Chol [8, 9]: 0.49 ± 0.05 mmol/L
Plasma Total Chol [8, 9]: 0.69 ± 0.07 mmol/L
Plasma Urate [8, 9]: 5.56 ± 0.43 µmol/L
Plasma a-TOH [8, 9]: 4.40 ± 0.24 µmol/L
Serum HDL Chol [8, 9]: 0.58 ± 0.07 mmol/L
Serum Triglycerides [8, 9]: 0.95 ± 0.11 mmol/L
Plasma Ascorbate ([8]; 0.02% PDA474, Week 3 (ABI)): 44.01 ± 5.29 µmol/L
Plasma Ch18:2 ([8]; 0.02% PDA474, Week 3 (ABI)): 0.19 ± 0.02 mmol/L
Plasma Ch20:2 ([8]; 0.02% PDA474, Week 3 (ABI)): 0.08 ± 0.00 mmol/L
Plasma Free Chol ([8]; 0.02% PDA474, Week 3 (ABI)): 0.42 ± 0.03 mmol/L
Plasma Total Chol ([8]; 0.02% PDA474, Week 3 (ABI)): 0.62 ± 0.03 mmol/L
Plasma Urate ([8]; 0.02% PDA474, Week 3 (ABI)): 5.86 ± 0.65 µmol/L
Plasma a-TOH ([8]; 0.02% PDA474, Week 3 (ABI)): 5.02 ± 0.50 µmol/L
Serum Cholesterol ([8]; 0.02% PDA474, Week 3 (ABI)): 0.77 ± 0.14 mmol/L
Serum HDL Chol ([8]; 0.02% PDA474, Week 3 (ABI)): 0.50 ± 0.09 mmol/L
Serum Triglycerides ([8]; 0.02% PDA474, Week 3 (ABI)): 0.98 ± 0.15 mmol/L
Plasma Ch18:2 ([8]; 0.02% PDA474, Week 6): 0.25 ± 0.10 mmol/L
Plasma Ch20:2 ([8]; 0.02% PDA474, Week 6): 0.02 ± 0.01 mmol/L
Plasma Free Chol ([8]; 0.02% PDA474, Week 6): 0.43 ± 0.11 mmol/L
Plasma Total Chol ([8]; 0.02% PDA474, Week 6): 0.70 ± 0.21 mmol/L
Plasma a-TOH ([8]; 0.02% PDA474, Week 6): 4.76 ± 0.64 µmol/L
Serum Cholesterol ([8]; 0.02% PDA474, Week 6): 1.15 ± 0.51 mmol/L
Serum HDL Chol ([8]; 0.02% PDA474, Week 6): 0.51 ± 0.15 mmol/L
Serum Triglycerides ([8]; 0.02% PDA474, Week 6): 0.93 ± 0.08 mmol/L
Plasma Ascorbate ([8]; 0.02% PDA474, Week 9 (cull)): 46.51 ± 5.49 µmol/L
Plasma Ch18:2 ([8]; 0.02% PDA474, Week 9 (cull)): 0.16 ± 0.02 mmol/L
Plasma Ch20:2 ([8]; 0.02% PDA474, Week 9 (cull)): 0.04 ± 0.00 mmol/L
Plasma Free Chol ([8]; 0.02% PDA474, Week 9 (cull)): 0.30 ± 0.03 mmol/L
Plasma Total Chol ([8]; 0.02% PDA474, Week 9 (cull)): 0.46 ± 0.04 mmol/L
Plasma Urate ([8]; 0.02% PDA474, Week 9 (cull)): 5.24 ± 1.25 µmol/L
Plasma a-TOH ([8]; 0.02% PDA474, Week 9 (cull)): 3.60 ± 0.31 µmol/L
Serum Cholesterol ([8]; 0.02% PDA474, Week 9 (cull)): 0.67 ± 0.06 mmol/L
Serum HDL Chol ([8]; 0.02% PDA474, Week 9 (cull)): 0.42 ± 0.04 mmol/L
Serum Triglycerides ([8]; 0.02% PDA474, Week 9 (cull)): 0.97 ± 0.13 mmol/L
hypocholesterolemic effect ([8]; rabbits, 0.02% PDA474, 9 weeks): no hypocholesterolemic effect
Serum Cholesterol ([8]; rabbits, chow with 0.02% PDA474, Week 0 (baseline)): 1.13 ± 0.15 mmol/L

Compound: diphenoquinone [H 330/68]
TRAA (decay of tocopheroxyl radical; kobs(+)/kobs(−)) [1]: kobs(+)/kobs(−)˜1
Anti-TMP index [2]: 100
